Test results published in PMC5259792, “A new serotonin 5-HT6 receptor antagonist with procognitive activity – Importance of a halogen bond interaction to stabilize the binding” (Scientific Reports, 2017).
Entries after “also recorded” stand apart in the source; their conditions may differ.

Experiments:
human 5-HT6R WT = target: T1, human 5-HT6R WT (Homo sapiens, UniProt P50406); assay: 5-HT6R AC assay (cAMP), wild type receptor; assay type: cell-based; conditions: for disappearance of the 5-HT induced response / functional character at the human 5-HT6R in the AC assay / increase in cAMP levels by ligand alone (agonist effect): HEK-293 cells expressing human 5-HT6R; for IC50: read-out: pIC50, inhibition of 5-HT-induced stimulation of cAMP (converted)
T1 construct: host or cells: HEK-293

5-HT6R C110A = target: T2, 5-HT6R C110A (Homo sapiens, UniProt P50406, C110A); assay: 5-HT6R AC assay (cAMP), C110A mutant; assay type: cell-based
T2 construct: host or cells: HEK-293

5-HT6R S193A = target: T3, 5-HT6R S193A (Homo sapiens, UniProt P50406, S193A); assay: 5-HT6R AC assay (cAMP), S193A mutant; assay type: cell-based
T3 construct: host or cells: HEK-293

5-HT6R F285A = target: T4, 5-HT6R F285A (Homo sapiens, UniProt P50406, F285A); assay: 5-HT6R AC assay (cAMP), F285A mutant; assay type: cell-based
T4 construct: host or cells: HEK-293

5-HT6R N288A = target: T5, 5-HT6R N288A (Homo sapiens, UniProt P50406, N288A); assay: 5-HT6R AC assay (cAMP), N288A mutant; assay type: cell-based
T5 construct: host or cells: HEK-293

[1] = Metabolic stability in human liver microsomes; assay type: in vitro ADME; conditions: HLMs, compound at 5 μM
Experimental: (§1) The high-affinity antagonist 7 was selected for the assessment of in vitro pharmacokinetic properties. Metabolic stability using rat and human liver microsomes (RLMs and HLMs, respectively) was determined as a measure of first-pass metabolism. Test compound was incubated at a concentration of 1 and 5 μM with RLM and HLM preparations, respectively. The half-life time (t1/2) was used to calculate the intrinsic clearance (CLint). […] An in vitro fluorescence-based inhibition assay was conducted with cytochrome P450 2D6 (CYP2D6), one of the most important enzymes involved in drug metabolism, using human recombinant microsomal CYP2D6 enzyme, AMMC {3-[2-(N,N-diethyl-N-methylamino)ethyl]-7-methoxy-4-methylcoumarin} as substrate, and quinidine as control inhibitor. After 30 min of incubation with compound 7 at a concentration of 10 μM, a remaining activity of 78% of the cytochrome was found.
(§2) RLM and HLM stability, HSA binding, and fluorescence-based CYP2D6 inhibition assays were performed according to previously reported procedures. Inhibition of hERG K^+ channel current was determined in an automated patch clamp assay using whole CHO-K1 cells at Eurofins Panlab (USA), according to previously published method.

[2] = Metabolic stability in rat liver microsomes; assay type: in vitro ADME
Experimental: as §1, §2

CYP2D6 = CYP2D6 (Homo sapiens, UniProt P10635); assay: Fluorescence-based CYP2D6 inhibition assay; assay type: in vitro ADME; conditions: human recombinant microsomal CYP2D6 enzyme, 30 min incubation, AMMC substrate, read-out: remaining activity of CYP2D6
Experimental: as §1, §2

[3] = target: human serum albumin (HSA) (Homo sapiens, UniProt P02768); assay: HSA binding; assay type: in vitro ADME; conditions: 5 μM
[4] = Parallel artificial membrane permeability assay (PAMPA); assay type: in vitro ADME; conditions: PBS pH 7.4, 25 °C, read-out: permeability value (P)
hERG K+ channel = target: T6, hERG K+ channel (Homo sapiens, UniProt Q12809); assay: hERG whole-cell patch clamp assay; assay type: cell-based; conditions: CHO-K1 cells, n = 3, read-out: IC50, blockade of hERG K+ channel current
T6 construct: host or cells: CHO-K1

[5] = target: T7, serotonin 5-HT2A receptor (Homo sapiens, UniProt P28223); assay: Selectivity panel radioligand binding, 5-HT2A; conditions: [3H]ketanserin (0.5 nM), 60 min, RT, read-out: Inhibition (%) (displacement of radioligand)
T7 construct: Eurofins Cerep (France)

[6] = target: T8, serotonin 5-HT2B receptor (Homo sapiens, UniProt P41595); assay: Selectivity panel radioligand binding, 5-HT2B; conditions: [3H]mesulergine, 60 min, RT, read-out: Inhibition (%) (displacement of radioligand)
T8 construct: Eurofins Cerep (France)

[7] = tested on: rats (time-induced memory deficit); assay: Novel object recognition task (NORT); assay type: in vivo, rat; conditions: male Wistar rats, 60 min before each session
human 5-HT6R = human 5-HT6R (Homo sapiens, UniProt P50406); assay: 5-HT6R radioligand competitive binding assay ([3H]LSD)
[8] = read-out: pIC50, inhibition of 5-HT-induced stimulation of cAMP (converted)

T1 sequence (P50406 whole entry): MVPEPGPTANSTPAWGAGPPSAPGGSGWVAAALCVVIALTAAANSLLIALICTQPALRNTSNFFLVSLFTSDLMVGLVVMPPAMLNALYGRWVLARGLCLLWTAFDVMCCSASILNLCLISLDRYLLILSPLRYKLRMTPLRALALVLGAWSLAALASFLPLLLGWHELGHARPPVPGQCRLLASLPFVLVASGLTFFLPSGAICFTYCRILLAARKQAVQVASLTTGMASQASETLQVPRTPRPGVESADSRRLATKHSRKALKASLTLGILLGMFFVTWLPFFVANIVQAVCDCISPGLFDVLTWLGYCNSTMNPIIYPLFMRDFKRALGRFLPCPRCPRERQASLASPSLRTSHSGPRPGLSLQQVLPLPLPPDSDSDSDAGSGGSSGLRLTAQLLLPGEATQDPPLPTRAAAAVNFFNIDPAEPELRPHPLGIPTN
human 5-HT6R, sequence (P50406 whole entry): as above
T2 sequence (P50406 whole entry C110A): as the sequence (P50406 whole entry) above, with C110A counted along it
T5 sequence (P50406 whole entry N288A): as the sequence (P50406 whole entry) above, with N288A counted along it
T3 sequence (P50406 whole entry S193A): as the sequence (P50406 whole entry) above, with S193A counted along it
T4 sequence (P50406 whole entry F285A): as the sequence (P50406 whole entry) above, with F285A counted along it
T8 sequence (P41595 whole entry): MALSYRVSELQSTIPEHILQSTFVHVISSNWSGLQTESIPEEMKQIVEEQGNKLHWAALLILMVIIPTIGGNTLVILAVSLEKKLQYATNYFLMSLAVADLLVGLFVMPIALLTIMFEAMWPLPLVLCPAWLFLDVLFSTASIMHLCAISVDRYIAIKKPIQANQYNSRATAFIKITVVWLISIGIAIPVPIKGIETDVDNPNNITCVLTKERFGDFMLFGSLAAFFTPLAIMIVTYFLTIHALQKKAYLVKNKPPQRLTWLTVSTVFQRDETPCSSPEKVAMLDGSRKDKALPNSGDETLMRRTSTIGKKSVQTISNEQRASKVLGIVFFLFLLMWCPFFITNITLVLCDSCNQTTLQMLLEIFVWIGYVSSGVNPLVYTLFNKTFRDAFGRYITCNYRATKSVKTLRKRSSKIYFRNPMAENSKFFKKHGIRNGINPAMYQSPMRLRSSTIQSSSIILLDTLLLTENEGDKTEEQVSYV
human serum albumin (HSA), sequence (P02768 25-609): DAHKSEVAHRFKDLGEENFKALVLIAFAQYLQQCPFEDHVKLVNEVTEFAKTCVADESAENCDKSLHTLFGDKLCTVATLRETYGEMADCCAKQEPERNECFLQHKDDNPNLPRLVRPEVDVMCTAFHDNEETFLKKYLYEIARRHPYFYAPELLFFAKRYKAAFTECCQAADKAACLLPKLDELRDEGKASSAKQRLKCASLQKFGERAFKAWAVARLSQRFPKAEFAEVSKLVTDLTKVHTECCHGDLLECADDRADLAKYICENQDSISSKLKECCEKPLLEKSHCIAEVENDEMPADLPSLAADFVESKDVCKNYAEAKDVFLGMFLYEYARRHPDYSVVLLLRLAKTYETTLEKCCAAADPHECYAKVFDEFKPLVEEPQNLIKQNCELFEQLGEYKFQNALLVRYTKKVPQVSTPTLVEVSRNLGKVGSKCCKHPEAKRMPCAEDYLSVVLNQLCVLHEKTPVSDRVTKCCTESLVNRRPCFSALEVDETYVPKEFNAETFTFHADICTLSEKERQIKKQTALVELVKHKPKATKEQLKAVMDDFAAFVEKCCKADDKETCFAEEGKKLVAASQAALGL
T7 sequence (P28223 whole entry): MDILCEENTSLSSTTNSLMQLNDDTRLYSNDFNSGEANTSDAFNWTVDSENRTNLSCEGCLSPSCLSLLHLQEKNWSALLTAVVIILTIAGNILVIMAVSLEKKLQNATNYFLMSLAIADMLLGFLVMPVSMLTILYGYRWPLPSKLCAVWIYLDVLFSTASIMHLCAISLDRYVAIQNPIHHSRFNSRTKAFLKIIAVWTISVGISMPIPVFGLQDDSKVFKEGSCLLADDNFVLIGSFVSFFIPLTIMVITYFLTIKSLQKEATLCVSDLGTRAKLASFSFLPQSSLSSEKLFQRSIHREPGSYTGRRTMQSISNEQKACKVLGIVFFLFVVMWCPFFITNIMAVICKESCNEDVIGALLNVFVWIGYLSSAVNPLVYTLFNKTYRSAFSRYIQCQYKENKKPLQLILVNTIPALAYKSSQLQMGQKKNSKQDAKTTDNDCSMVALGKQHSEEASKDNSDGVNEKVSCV
CYP2D6, sequence (P10635 whole entry): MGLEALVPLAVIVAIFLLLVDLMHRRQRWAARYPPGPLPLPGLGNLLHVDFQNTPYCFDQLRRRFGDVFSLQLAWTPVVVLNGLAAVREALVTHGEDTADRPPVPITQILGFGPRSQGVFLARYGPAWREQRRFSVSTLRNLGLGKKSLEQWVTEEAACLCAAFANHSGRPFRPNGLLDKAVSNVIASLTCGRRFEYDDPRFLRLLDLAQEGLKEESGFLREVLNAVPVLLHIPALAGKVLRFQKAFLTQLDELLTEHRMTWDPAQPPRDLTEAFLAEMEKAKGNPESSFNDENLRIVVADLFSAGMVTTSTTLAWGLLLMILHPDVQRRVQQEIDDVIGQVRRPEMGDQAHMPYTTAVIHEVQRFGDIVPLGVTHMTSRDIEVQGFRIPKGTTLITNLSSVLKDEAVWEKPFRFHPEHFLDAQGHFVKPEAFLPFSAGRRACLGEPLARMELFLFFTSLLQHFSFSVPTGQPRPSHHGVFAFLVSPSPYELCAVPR
T6 sequence (Q12809 whole entry): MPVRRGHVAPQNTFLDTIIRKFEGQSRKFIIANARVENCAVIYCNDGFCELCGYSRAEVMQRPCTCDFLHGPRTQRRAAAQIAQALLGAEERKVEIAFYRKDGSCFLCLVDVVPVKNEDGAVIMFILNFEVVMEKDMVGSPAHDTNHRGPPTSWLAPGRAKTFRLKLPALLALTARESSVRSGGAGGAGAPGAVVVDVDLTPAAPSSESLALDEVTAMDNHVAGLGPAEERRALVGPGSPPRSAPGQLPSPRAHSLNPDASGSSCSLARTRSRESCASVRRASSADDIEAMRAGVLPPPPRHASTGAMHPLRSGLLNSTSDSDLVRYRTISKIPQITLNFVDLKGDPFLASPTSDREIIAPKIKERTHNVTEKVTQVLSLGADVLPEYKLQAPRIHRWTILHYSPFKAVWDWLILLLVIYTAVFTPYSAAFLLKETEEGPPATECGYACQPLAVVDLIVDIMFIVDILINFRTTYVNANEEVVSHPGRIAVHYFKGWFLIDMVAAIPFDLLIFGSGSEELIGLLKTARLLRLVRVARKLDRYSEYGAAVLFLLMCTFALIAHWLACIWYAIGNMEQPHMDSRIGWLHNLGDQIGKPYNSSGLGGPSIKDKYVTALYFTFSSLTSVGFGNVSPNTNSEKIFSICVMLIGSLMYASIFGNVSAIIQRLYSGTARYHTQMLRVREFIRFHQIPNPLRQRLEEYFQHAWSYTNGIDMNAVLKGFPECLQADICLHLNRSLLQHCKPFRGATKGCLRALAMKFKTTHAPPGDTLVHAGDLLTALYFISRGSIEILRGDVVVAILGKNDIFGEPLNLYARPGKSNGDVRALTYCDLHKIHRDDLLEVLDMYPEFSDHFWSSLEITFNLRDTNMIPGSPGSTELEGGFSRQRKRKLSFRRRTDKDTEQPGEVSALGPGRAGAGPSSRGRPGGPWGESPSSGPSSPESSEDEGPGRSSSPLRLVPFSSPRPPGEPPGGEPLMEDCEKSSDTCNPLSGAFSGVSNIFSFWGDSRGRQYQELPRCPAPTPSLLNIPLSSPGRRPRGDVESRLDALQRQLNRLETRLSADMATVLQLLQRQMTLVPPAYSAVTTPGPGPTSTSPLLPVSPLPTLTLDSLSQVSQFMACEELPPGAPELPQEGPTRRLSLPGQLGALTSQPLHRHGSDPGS

| SMILES | Ki (human 5-HT6R) | melting point | other results |
| --- | --- | --- | --- |
| CN(C)CCn1cnc2ccc(NS(=O)(=O)c3ccc4c(Cl)cccc4c3)cc21 [Compound 7, 5-Chloro-N-{1-[2-(dimethylamino)ethyl]-1H-benzimidazol-6-yl}naphthalene-2-sulfonamide] | 9 nM |  | disappearance of the 5-HT induced response (human 5-HT6R WT): ≥ 95%; functional character at the human 5-HT6R in the AC assay (human 5-HT6R WT): antagonists; increase in cAMP levels by ligand alone (agonist effect) (human 5-HT6R WT): did not induce a substantial increase in cAMP levels; IC50 (human 5-HT6R WT): 15.8 nM; IC50 (5-HT6R C110A; [8]): 158 nM; IC50 (5-HT6R S193A; [8]): 1260 nM; IC50 (5-HT6R F285A; [8]): ~31.6 µM; IC50 (5-HT6R N288A; [8]): 126 nM; CLint scaled at 5 μM ([1]; calculated from t1/2, read-out: intrinsic clearance (CLint)): 8 mL/min/kg; half-life at 5 μM ([1]; read-out: half-life time (t1/2)): 77.5 min; half-life at 1 μM ([2]; RLMs, compound at 1 μM, read-out: half-life time (t1/2)): 20.7 min; CLint scaled at 1 μM ([2]; read-out: intrinsic clearance (CLint)): 67.8 mL/min/kg; activity at 30 min, 10 µM (CYP2D6): 78%; binding to HSA [3]: 70%; Papp at 5 h, 200 μM [4]: 12 ×10⁻⁶ cm/s; IC50 (hERG K+ channel): > 10 µM; inhibition at 1 µM [5]: < 23%; inhibition at 1 µM [6]: 16%; effect on time-induced memory deficit in NORT (exploration of novel vs familiar object) ([7]; 1 mg/kg, ip, 1 mg/kg): in vivo procognitive activity; also recorded: animals spent more time exploring the novel object than the familiar one; also recorded: significant reversal of the time-delay induced memory deficit |
| CN(C)CCn1cnc2cc(NC(=O)c3ccccc3)ccc21 [Compound S8] | > 500 nM | 113 to 115 °C |  |
| CN(C)CCn1cnc2cc(NS(=O)(=O)c3c(Cl)nc4sccn34)ccc21 [Compound 12] | 33 ± 3 nM | 99 to 101 °C |  |
| CN(C)CCn1cnc2ccc(NS(=O)(=O)c3ccc4c(Br)cccc4c3)cc21 [Compound 16] | 12 nM |  |  |
| CN(C)CCn1cnc2cc(NS(=O)(=O)c3ccc4c(Cl)cccc4c3)ccc21 [Compound 6] | 112 nM | 92 to 95 °C |  |
| Cc1c(S(=O)(=O)Nc2ccc3c(c2)ncn3CCN(C)C)sc2ccc(Cl)cc12 [Compound 9] | 245 nM | 90 to 93 °C |  |
| CN(C)CCn1cnc2ccc(NC(=O)c3ccccc3)cc21 [Compound S9] | > 500 nM | 115 to 117 °C |  |
| CN(C)CCn1cnc2ccc(NS(=O)(=O)c3c(Cl)nc4sccn34)cc21 [Compound 13] | 182 ± 6 nM | 139 to 141 °C |  |
| Cc1c(S(=O)(=O)Nc2ccc3ncn(CCN(C)C)c3c2)sc2ccc(Br)cc12 [Compound 17] | 37 nM |  |  |
| CC(C)NCC(O)COc1cccc2ccccc12 (centres unmarked) [propranolol, reference compound] |  |  | Papp at 5 h, 200 μM [4]: 25 ×10⁻⁶ cm/s |
| CN(C)CCn1cnc2ccc(NS(=O)(=O)c3cccc4c(Cl)cccc34)cc21 [Compound 15] | 238 nM | 223 °C (dec.) |  |
| Nc1c2c(nc3ccccc13)CCCC2 [tacrine, reference compound] |  |  | effect on time-induced memory deficit in NORT (exploration of novel vs familiar object) ([7]; 0.5 mg/kg, po): animals spent more time exploring the novel object than the familiar one |
| NCCc1c[nH]c2ccc(O)cc12 [Compound 5-HT, 5-HT] |  |  | cAMP release (5-HT) Efficacy (human 5-HT6R WT; 5-HT6R WT): agonist; cAMP release (5-HT) Efficacy (5-HT6R C110A; 5-HT6R C110A): agonist; cAMP release (5-HT) Efficacy (5-HT6R S193A; 5-HT6R S193A): agonist; cAMP release (5-HT) Efficacy (5-HT6R F285A; 5-HT6R F285A): agonist; cAMP release (5-HT) Efficacy (5-HT6R N288A; 5-HT6R N288A): agonist |
| CN(C)CCn1cnc2c(NC(=O)c3ccccc3)cccc21 [Compound S7] | > 500 nM | 109 to 112 °C |  |
| CN(C)CCn1cnc2cccc(NC(=O)c3ccccc3)c21 [Compound S10] | > 500 nM | 98 to 101 °C |  |
| CN(C)CCn1cnc2c(NS(=O)(=O)c3ccccc3)cccc21 [Compound 2] | 243 ± 15 nM | 121 to 123 °C |  |
| Cc1c(S(=O)(=O)Nc2cccc3c2ncn3CCN(C)C)sc2ccc(Cl)cc12 [Compound 8] | 89 nM | 90 to 93 °C |  |
| CN(C)CCn1cnc2c(NS(=O)(=O)c3c(Cl)nc4sccn34)cccc21 [Compound 11] | 200 ± 13 nM | 71 to 74 °C |  |

The next lines start with results.

| Ki (human 5-HT6R) | melting point | SMILES | other results |
| --- | --- | --- | --- |
| > 500 nM | 108 to 110 °C | CN(C)CCCn1cnc2cc(C(=O)Nc3ccccc3)ccc21 [Compound S2] |  |
| > 500 nM | 181 °C (dec.) | CN(C)CCn1cnc2ccc(NS(=O)(=O)c3ccc4cc(Cl)ccc4c3)cc21 [Compound 14] |  |
| > 500 nM | 142 to 145 °C | CN(C)CCn1cnc2cccc(NS(=O)(=O)c3ccccc3)c21 [Compound S11] |  |
| > 500 nM | 104 to 106 °C | CN(C)CCCn1cnc2c(C(=O)Nc3ccccc3)cccc21 [Compound S1] |  |
| 144 nM | 207 to 208 °C | CN(C)CCn1cnc2ccc(NS(=O)(=O)c3ccc4ccccc4c3)cc21 [Compound 18] |  |
| 195 nM | 175 to 176 °C | Cc1c(S(=O)(=O)Nc2ccc3ncn(CCN(C)C)c3c2)sc2ccccc12 [Compound 19] |  |
| 200 ± 10 nM | 138 to 140 °C | CN(C)CCn1cnc2ccc(NS(=O)(=O)c3ccccc3)cc21 [Compound 4] |  |
| 64 nM | 76 to 78 °C | CN(C)CCn1cnc2c(NS(=O)(=O)c3ccc4c(Cl)cccc4c3)cccc21 [Compound 5] |  |
| 213 ± 8 nM | 178 to 180 °C | CN(C)CCn1cnc2cc(NS(=O)(=O)c3ccccc3)ccc21 [Compound 3] |  |
| 25 nM | 114 to 115 °C | Cc1c(S(=O)(=O)Nc2ccc3ncn(CCN(C)C)c3c2)sc2ccc(Cl)cc12 [Compound 10] | disappearance of the 5-HT induced response (human 5-HT6R WT): ≥ 95%; functional character at the human 5-HT6R in the AC assay (human 5-HT6R WT): antagonists; increase in cAMP levels by ligand alone (agonist effect) (human 5-HT6R WT): did not induce a substantial increase in cAMP levels; IC50 (human 5-HT6R WT): 50.1 nM |
